Results on 16 molecules are retold here after EP1247803A2, “Indolinone compounds suitable for modulation of protein kinases” (Sugen, Inc., priority 1996, dated 1998).

In one test the test system is MET. Description: MET biochemical kinase assay. More on the design: species or system human; concentration or dose not given beside the values. The method in brief:
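Lysate-derived MET, or chimeric receptors, is immobilised on plates through an antibody to the human MET cytoplasmic region. Compounds are added along with kinase buffer supplying ATP and divalent metal ions, and receptor autophosphorylation is quantified by anti-phosphotyrosine ELISA.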

The target of the next test is PDGF-R (Homo sapiens, UniProt P09619). Description: PDGF-R ELISA. Type of test: cell-based. From the text:
A PDGF-R ELISA is described in International Patent Publication No. WO 96/40116, published December 19, 1996 by Tang et al.

For a further test, the target named is T1, FLK-1 receptor (Mus musculus, UniProt P35918).
T1 construct: expressed in transfected cells; host or cells: NIH3T3 C7#3
As to the kind of experiment: FLK-1 ELISA (kinase activity of the FLK-1 receptor in FLK-1/NIH3T3 cells, VEGF stimulated). The class given is cell-based. More on the design: concentration or dose not given beside the values. The method in brief:
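FLK-1-expressing NIH3T3 C7#3 cells, starved overnight in 0.1% FBS medium, were treated with compounds at a 1:200 final dilution (0.5% DMSO) for 2 h at 37 °C, with VEGF stimulation. FLK-1 kinase activity was read by ELISA on anti-rabbit IgG plates using affinity-purified anti-FLK-1 antiserum.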

T1 sequence (P35918 20-1345): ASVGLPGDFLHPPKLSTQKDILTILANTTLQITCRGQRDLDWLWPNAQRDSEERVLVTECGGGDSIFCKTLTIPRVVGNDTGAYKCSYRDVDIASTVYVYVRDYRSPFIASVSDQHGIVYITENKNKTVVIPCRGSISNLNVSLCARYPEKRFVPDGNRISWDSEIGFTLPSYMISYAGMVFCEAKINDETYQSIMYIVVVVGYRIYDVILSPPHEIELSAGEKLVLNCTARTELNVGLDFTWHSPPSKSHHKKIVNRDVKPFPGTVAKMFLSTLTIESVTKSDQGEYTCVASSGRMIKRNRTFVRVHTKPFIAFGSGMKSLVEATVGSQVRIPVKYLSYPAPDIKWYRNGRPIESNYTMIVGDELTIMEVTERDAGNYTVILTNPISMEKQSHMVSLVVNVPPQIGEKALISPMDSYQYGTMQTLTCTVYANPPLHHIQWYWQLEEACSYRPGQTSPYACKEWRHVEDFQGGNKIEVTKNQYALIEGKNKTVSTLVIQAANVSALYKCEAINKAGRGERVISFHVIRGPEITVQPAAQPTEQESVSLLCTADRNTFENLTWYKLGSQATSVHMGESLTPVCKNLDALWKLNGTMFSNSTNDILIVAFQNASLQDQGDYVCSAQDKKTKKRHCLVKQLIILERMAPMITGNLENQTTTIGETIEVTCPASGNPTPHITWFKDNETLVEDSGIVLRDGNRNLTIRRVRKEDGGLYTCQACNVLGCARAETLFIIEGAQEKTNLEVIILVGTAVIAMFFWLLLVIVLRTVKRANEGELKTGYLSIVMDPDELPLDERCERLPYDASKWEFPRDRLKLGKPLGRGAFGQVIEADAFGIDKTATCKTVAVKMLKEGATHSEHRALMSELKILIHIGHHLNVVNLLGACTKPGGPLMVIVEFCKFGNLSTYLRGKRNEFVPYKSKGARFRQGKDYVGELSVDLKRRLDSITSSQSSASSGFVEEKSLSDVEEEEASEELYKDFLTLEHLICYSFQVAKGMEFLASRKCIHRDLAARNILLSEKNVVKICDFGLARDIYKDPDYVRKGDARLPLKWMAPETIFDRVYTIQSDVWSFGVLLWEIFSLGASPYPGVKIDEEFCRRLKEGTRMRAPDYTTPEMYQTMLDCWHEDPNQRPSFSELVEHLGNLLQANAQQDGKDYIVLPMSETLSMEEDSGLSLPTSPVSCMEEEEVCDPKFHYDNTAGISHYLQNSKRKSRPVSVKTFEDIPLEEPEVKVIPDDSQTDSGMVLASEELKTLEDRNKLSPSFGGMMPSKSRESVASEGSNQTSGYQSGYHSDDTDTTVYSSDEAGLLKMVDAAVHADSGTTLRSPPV
Sequence of PDGF-R (P09619 33-1106, species assumed): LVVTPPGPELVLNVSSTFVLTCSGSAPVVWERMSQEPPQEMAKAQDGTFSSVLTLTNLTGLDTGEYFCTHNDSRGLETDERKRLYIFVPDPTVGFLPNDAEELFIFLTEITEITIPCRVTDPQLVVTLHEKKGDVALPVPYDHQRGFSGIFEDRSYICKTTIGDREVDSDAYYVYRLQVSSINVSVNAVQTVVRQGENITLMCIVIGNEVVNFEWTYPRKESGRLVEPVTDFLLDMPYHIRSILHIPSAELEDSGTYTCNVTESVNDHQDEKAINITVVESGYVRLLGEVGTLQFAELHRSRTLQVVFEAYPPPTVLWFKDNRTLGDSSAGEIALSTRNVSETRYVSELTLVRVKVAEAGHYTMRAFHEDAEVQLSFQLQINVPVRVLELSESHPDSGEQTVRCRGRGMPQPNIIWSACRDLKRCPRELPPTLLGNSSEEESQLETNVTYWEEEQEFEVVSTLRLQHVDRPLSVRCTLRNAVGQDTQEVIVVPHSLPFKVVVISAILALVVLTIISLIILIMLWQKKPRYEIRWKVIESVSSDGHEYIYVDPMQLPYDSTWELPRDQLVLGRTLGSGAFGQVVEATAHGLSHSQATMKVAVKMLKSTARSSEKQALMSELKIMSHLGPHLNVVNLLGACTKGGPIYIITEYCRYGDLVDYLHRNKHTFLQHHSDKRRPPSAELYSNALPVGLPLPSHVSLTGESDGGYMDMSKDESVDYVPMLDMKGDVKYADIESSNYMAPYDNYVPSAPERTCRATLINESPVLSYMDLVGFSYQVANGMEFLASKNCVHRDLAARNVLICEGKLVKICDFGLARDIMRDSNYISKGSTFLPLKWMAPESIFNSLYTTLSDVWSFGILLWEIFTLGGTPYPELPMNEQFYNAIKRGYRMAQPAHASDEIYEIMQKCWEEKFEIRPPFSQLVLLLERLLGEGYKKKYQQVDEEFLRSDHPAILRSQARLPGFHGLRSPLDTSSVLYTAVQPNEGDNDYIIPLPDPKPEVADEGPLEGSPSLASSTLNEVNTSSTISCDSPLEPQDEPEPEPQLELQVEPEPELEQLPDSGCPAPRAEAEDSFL

Regarding `COc1ccc(C=C2C(=O)Nc3ccc(S(=O)(=O)Nc4ccc(C(F)(F)F)cc4)cc32)cc1` [10726/E11], the “Met Kinase % Inhibition” value in the test with MET amounted to 34.5%. Further, on PDGF-R, the “PDGF Kinase %Inhibition” value came to 30.3%. For the same molecule, the “Fik Kinase %Inhibition” value on FLK-1 receptor is 16.2%.

Take `CNS(=O)(=O)c1ccc2c(c1)C(=C1C(=O)Nc3ccc(F)cc31)C(=O)N2` [10726/D08]: the “Met Kinase % Inhibition” value with MET came to 39.5%. Also, the “PDGF Kinase %Inhibition” value at PDGF-R was found to be 22.1%. Also, the “Fik Kinase %Inhibition” value at FLK-1 receptor was 12.1%.

On to `Cc1cn(C)cc1C=C1C(=O)Nc2ccc(CCCl)cc21` [10726/G06], for which the “Met Kinase % Inhibition” value with MET is on record as 19.9%. Moreover, at PDGF-R, the “PDGF Kinase %Inhibition” value is -26.6%. Further, the “Fik Kinase %Inhibition” value on FLK-1 receptor is listed as 7.0%.

As to `Cc1c(Br)ccc2c1C(=C1C(=O)Nc3ccc(F)cc31)C(=O)N2` [10726/C08], the “Met Kinase % Inhibition” value with MET amounted to 46.8%. For the same molecule, on PDGF-R, the “PDGF Kinase %Inhibition” value was 21.4%. In addition, the “Fik Kinase %Inhibition” value on FLK-1 receptor turned out to be 3.4%.

As for `Cc1c(Br)ccc2c1C(=Cc1ccccc1Sc1ccc(Cl)cc1)C(=O)N2` [10727/C05], in the test on MET, the “Met Kinase % Inhibition” value is 8.9%. The “PDGF Kinase %Inhibition” value at PDGF-R came to 7.9%. Moreover, the “Fik Kinase %Inhibition” value at FLK-1 receptor is reported as 13.7%.

For `Cc1c(Br)ccc2c1C(=Cc1coc3ccccc3c1=O)C(=O)N2` [10727/C07], the “Met Kinase % Inhibition” value in the test with MET is reported as 36.7%. Moreover, at PDGF-R, the “PDGF Kinase %Inhibition” value was determined as 13.0%. The “Fik Kinase %Inhibition” value on FLK-1 receptor was found to be 15.9%.

Consider `CCc1ccc(C=C2C(=O)Nc3ccc(S(=O)(=O)Nc4ccc(C(F)(F)F)cc4)cc32)s1` [10726/E10], for which, in the test with MET, the “Met Kinase % Inhibition” value is reported as 41.5%. In addition, on PDGF-R, the “PDGF Kinase %Inhibition” value amounted to 37.9%. The “Fik Kinase %Inhibition” value on FLK-1 receptor is given as 16.5%.

Regarding `Cc1c(Br)ccc2c1C(=Cc1cc3c(cc1Cl)OCO3)C(=O)N2` [10727/C06], in the test on MET, the “Met Kinase % Inhibition” value was found to be 45.2%. Also, on PDGF-R, the “PDGF Kinase %Inhibition” value stood at 12.3%. On FLK-1 receptor, the “Fik Kinase %Inhibition” value is 5.2%.

Consider `CCc1ccc(C=C2C(=O)Nc3ccc(S(=O)(=O)N4CCOCC4)cc32)s1` [10726/F10], for which the “Met Kinase % Inhibition” value with MET is 51.4%. Also, the “PDGF Kinase %Inhibition” value on PDGF-R was found to be 9.4%. Besides, the “Fik Kinase %Inhibition” value at FLK-1 receptor is given as 7.0%.

`O=C1Nc2ccc(CCCl)cc2C1=Cc1cc(O)c2c(c1O)CCCC2` [10726/G07]: in the test with MET, the “Met Kinase % Inhibition” value is on record as 94.8%. Moreover, the “PDGF Kinase %Inhibition” value at PDGF-R is -107.6%. On FLK-1 receptor, the “Fik Kinase %Inhibition” value is -13.7%.

For `CCN(CC)c1ccc(C=C2C(=O)Nc3ccc(S(=O)(=O)NC)cc32)cc1` [10727/D02], the “Met Kinase % Inhibition” value with MET turned out to be 51.6%. Also, the “PDGF Kinase %Inhibition” value on PDGF-R worked out at 5.7%. The “Fik Kinase %Inhibition” value at FLK-1 receptor amounted to 3.2%.

Consider `COc1ccc(C=C2C(=O)Nc3ccc(S(=O)(=O)N4CCOCC4)cc32)cc1` [10726/F11], for which, in the test with MET, the “Met Kinase % Inhibition” value was 57.6%. Also, on PDGF-R, the “PDGF Kinase %Inhibition” value was 25.2%. Also, at FLK-1 receptor, the “Fik Kinase %Inhibition” value is given as 13.6%.

Turning to `Cc1c(Br)ccc2c1C(=C1C(=O)Nc3ccccc31)C(=O)N2` [10726/C09], the “Met Kinase % Inhibition” value in the test on MET was 48.5%. The “PDGF Kinase %Inhibition” value on PDGF-R was 26.5%. The “Fik Kinase %Inhibition” value at FLK-1 receptor amounted to 12.9%.

With `Cc1c(Br)ccc2c1C(=Cc1cccc(C#N)c1)C(=O)N2` [10727/C08], in the test on MET, the “Met Kinase % Inhibition” value is 47.8%. The “PDGF Kinase %Inhibition” value on PDGF-R is given as 23.2%. Further, at FLK-1 receptor, the “Fik Kinase %Inhibition” value was 4.9%.

On to `COc1ccc(C=C2C(=O)Nc3ccc(Br)c(C)c32)cc1` [10726/C11], for which the “Met Kinase % Inhibition” value with MET is 34.7%. In addition, the “PDGF Kinase %Inhibition” value at PDGF-R turned out to be 51.1%. Further, on FLK-1 receptor, the “Fik Kinase %Inhibition” value was -32.2%.

Regarding `O=C1Nc2ccc(S(=O)(=O)Nc3ccc(C(F)(F)F)cc3)cc2C1=Cc1cc(O)c2c(c1O)CCCC2` [10726/E07], the “Met Kinase % Inhibition” value in the test on MET is listed as 84.0%. Besides, at PDGF-R, the “PDGF Kinase %Inhibition” value is on record as -12.1%. Further, the “Fik Kinase %Inhibition” value at FLK-1 receptor was -40.0%.
